This note sets out measurements from paper PMC12845261, “Design, Synthesis, and Biological Evaluation of N-Acyl-Hydrazone-Linked Quinazolinone Derivatives with Antioxidant, Antimicrobial, and Anticancer Potential” (Pharmaceuticals, 2025).

Data set [1] is described as follows: Artemia franciscana toxicity assay (nauplii lethality). Particulars: Artemia franciscana (brine shrimp) nauplii, in vivo. The method, then:
(§1) The brine shrimp cysts (Artemia franciscana) were sourced from Great Salt Lake (USA) through Ocean Star International (Burlingame, CA, USA) via S.K. Trading (Bangkok, Thailand), which carried out the repackaging. Artificial seawater was prepared by dissolving a CoralMarine salt mixture (Grotech) in distilled water to achieve a concentration of about 30 g/L. The cysts were placed in artificial seawater at 25 °C under vigorous aeration. They were allowed to hatch 48 h before the onset of the test, the brine shrimp nauplii stage being selected for the toxicity assay.
(§2) The analyzed compounds were dissolved in 100 μL DMSO and then suspended in seawater to a final volume of 10 mL. The starting concentration was 1000 μM, followed by binary dilutions with seawater: 500 μM, 250 μM, 125 μM and 62.5 μM. A blank solution of 100 μL DMSO and seawater up to 10 mL was also prepared. 24 well-plates (6 × 4) were used and the assay was conducted in triplicate for each concentration and the blank solution. 15 ± 3 nauplii were added to each well, and the plates were placed into the dark. The viability of the nauplii was monitored at 24 and 48 h.
(§3) The LC50 was estimated by interpolation using RStudio 2025.09.2 [84, 85], the drc package. Several non-linear regression models were applied: generalized log logistic regressions (LL.2, LL2.2, LL.4, LL.5) and Weibull functions (W1.2, W1.3, W2.2, W2.3).

The next data set has as its system Artemia franciscana. The data set is described as above. Particulars: from LC50 at 48 h, standard aquatic toxicity classifications [53]. The method, then: as §1, §2, §3

Several values for one entry are separate records, joined by “and”; a condition that tells them apart may be missing. Equal values may be shown once.

As for `Cc1nc2ccccc2c(=O)n1CC(=O)NN` [Compound 2, 2-(2-methyl-4-oxoquinazolin-3(4H)-yl)acetohydrazide], in data set [1], the LC50 at 48 h was 335 µM and 77.2 µg/mL. Moreover, the Toxicity class result in the data set with Artemia franciscana was “moderate toxicity”.
